Data taken from patent publication US6352958B1, “Cycloimido-substituted benzofused heterocyclic herbicides” (FMC Corporation, priority 1997, dated 2002).

Assays:
Format in all cases: in vivo
[1] = system: soybean (Glycine max var. Winchester); experiment: Preemergence herbicidal activity, soybean; details: Rate of Application 0.3 Kg/Ha, examined after 12-17 days
[2] = system: wheat (Triticum aestivum var. Lew); experiment: Preemergence herbicidal activity, wheat; details: Rate of Application 0.3 Kg/Ha, examined after 12-17 days
[3] = system: field corn (Zea mays var. Pioneer 3732); experiment: Preemergence herbicidal activity, corn; details: Rate of Application 0.3 Kg/Ha, examined after 12-17 days
[4] = system: velvetleaf (Abutilon theophrasti); experiment: Preemergence herbicidal activity, velvetleaf; details: Rate of Application 0.3 Kg/Ha, examined after 12-17 days
[5] = system: morningglory (Ipomea lacunosa or Ipomea hederacea); experiment: Preemergence herbicidal activity, morningglory; details: Rate of Application 0.3 Kg/Ha, examined after 12-17 days
[6] = system: common chickweed (Stellaria media); experiment: Preemergence herbicidal activity, chickweed; details: Rate of Application 0.3 Kg/Ha, examined after 12-17 days
[7] = system: common cocklebur (Xanthium strumarium L.); experiment: Preemergence herbicidal activity, cocklebur; details: Rate of Application 0.3 Kg/Ha, examined after 12-17 days
[8] = system: blackgrass (Aloepecurus myosuroides); experiment: Preemergence herbicidal activity, blackgrass; details: Rate of Application 0.3 Kg/Ha, examined after 12-17 days
[9] = system: green foxtail (Setaria viridis); experiment: Preemergence herbicidal activity, green foxtail; details: Rate of Application 0.3 Kg/Ha, examined after 12-17 days
[10] = system: Johnsongrass (Sorghum halepense); experiment: Preemergence herbicidal activity, johnsongrass; details: Rate of Application 0.3 Kg/Ha, examined after 12-17 days
[11] = system: soybean (Glycine max var. Winchester); experiment: Postemergence herbicidal activity, soybean; details: rate of application 0.3 Kg/Ha, rated after 12-17 days
[12] = system: wheat (Triticum aestivum var. Lew); experiment: Postemergence herbicidal activity, wheat; details: rate of application 0.3 Kg/Ha, rated after 12-17 days
[13] = system: field corn (Zea mays var. Pioneer 3732); experiment: Postemergence herbicidal activity, corn; details: rate of application 0.3 Kg/Ha, rated after 12-17 days
[14] = system: velvetleaf (Abutilon theophrasti); experiment: Postemergence herbicidal activity, velvetleaf; details: rate of application 0.3 Kg/Ha, rated after 12-17 days
[15] = system: morningglory (Ipomea lacunosa or Ipomea hederacea); experiment: Postemergence herbicidal activity, morningglory; details: rate of application 0.3 Kg/Ha, rated after 12-17 days
[16] = system: common chickweed (Stellaria media); experiment: Postemergence herbicidal activity, chickweed; details: rate of application 0.3 Kg/Ha, rated after 12-17 days
[17] = system: common cocklebur (Xanthium strumarium L.); experiment: Postemergence herbicidal activity, cocklebur; details: rate of application 0.3 Kg/Ha, rated after 12-17 days
[18] = system: blackgrass (Aloepecurus myosuroides); experiment: Postemergence herbicidal activity, blackgrass; details: rate of application 0.3 Kg/Ha, rated after 12-17 days
[19] = system: green foxtail (Setaria viridis); experiment: Postemergence herbicidal activity, green foxtail; details: rate of application 0.3 Kg/Ha, rated after 12-17 days
[20] = system: Johnsongrass (Sorghum halepense); experiment: Postemergence herbicidal activity, johnsongrass; details: rate of application 0.3 Kg/Ha, rated after 12-17 days

SMILES	PREEMERGENCE HERBICIDAL ACTIVITY (% CONTROL) SOY [1] [%]	PREEMERGENCE HERBICIDAL ACTIVITY (% CONTROL) WHT [2] [%]	PREEMERGENCE HERBICIDAL ACTIVITY (% CONTROL) CRN [3] [%]	PREEMERGENCE HERBICIDAL ACTIVITY (% CONTROL) ABUTH [4] [%]	PREEMERGENCE HERBICIDAL ACTIVITY (% CONTROL) IPOSS [5] [%]	PREEMERGENCE HERBICIDAL ACTIVITY (% CONTROL) STEME [6] [%]	PREEMERGENCE HERBICIDAL ACTIVITY (% CONTROL) XANPE [7] [%]	PREEMERGENCE HERBICIDAL ACTIVITY (% CONTROL) ALOMY [8] [%]	PREEMERGENCE HERBICIDAL ACTIVITY (% CONTROL) SETVI [9] [%]	PREEMERGENCE HERBICIDAL ACTIVITY (% CONTROL) SORHA [10] [%]	Postemergence herbicidal activity (% control) SOY [11] [%]	Postemergence herbicidal activity (% control) WHT [12] [%]	Postemergence herbicidal activity (% control) CRN [13] [%]	Postemergence herbicidal activity (% control) ABUTH [14] [%]	Postemergence herbicidal activity (% control) IPOSS [15] [%]	Postemergence herbicidal activity (% control) STEME [16] [%]	Postemergence herbicidal activity (% control) XANPE [17] [%]	Postemergence herbicidal activity (% control) ALOMY [18] [%]	Postemergence herbicidal activity (% control) SETVI [19] [%]	Postemergence herbicidal activity (% control) SORHA [20] [%]
COC(=O)CCc1cc2c(Cl)cc(F)c(-n3c(=O)cc(C(F)(F)F)n(C)c3=O)c2o1 [Compound 263]	100	50	65	100	100	100	95	75	100	70	95	80	90	100	100	100	100	60	90	70
CNC(=O)c1cc2c(Cl)cc(F)c(-n3c(=O)cc(C(F)(F)F)n(C)c3=O)c2o1 [Compound 274]	100	100	90	100	100	90	100	95	100	100	95	60	95	100	100	90	100	90	100	100
CNC(=O)OCCc1cc2c(Cl)cc(F)c(-n3c(=O)cc(C(F)(F)F)n(C)c3=O)c2o1 [Compound 261]	100	80	95	100	100	100	90	80	100	100	95	80	100	100	100	100	100	100	100	100
Cn1c(C(F)(F)F)cc(=O)n(-c2c(F)cc(Cl)c3cc(C(C)(C)O)oc23)c1=O [Compound 242]	100	100	100	100	100	100	100	100	100	100	100	100	100	100	100	100	100	100	100	100
